Earlier results, collected in patent US20090247521A1, “SOLUBLE EPOXIDE HYDROLASE INHIBITORS FOR THE TREATMENT OF ENDOTHELIAL DYSFUNCTION” (Arete Therapeutics, Inc., priority 2007, published 2009).

System: thoracic aortic rings
Details: aortic rings from DOCA-salt hypertensive rats that received the s-EH inhibitor, compared with vehicle and normotensive controls

CCCCCCCCCCCCNC(=O)NC12CC3CC(CC(C3)C1)C2 [ADU, adamantyl dodecyl urea]
acetylcholine-induced endothelium-dependent vasorelaxation: augmented acetylcholine-induced endothelium-dependent vasorelaxation, similar to that of the normotensive control animals
